≈ marks a conversion by molar mass, not a printed value.
Assays:
HeLa = assay: Cytotoxicity against human HeLa cells; format: functional; details: read-out: ED50 (the source's name)
[1] = Cytotoxicity against chinese hamster CHOK1 cells; format: cell-based, Cricetulus griseus; details: CHO-K1 cells, read-out: ED50 (the source's name)
KM12 = assay: Cytotoxicity against human KM12 cells; format: functional, cell-based
MOLT-4 = assay: Cytotoxicity against human MOLT4 cells; format: functional, cell-based

CC1=C2CC3=C(C)C(=O)O[C@H]3C[C@@H](C)[C@@H]2CC1 [AMERICANOLIDE D]
EC50 (HeLa): 30 µg/mL (≈ 129 µM) | CC50 [1]: 100 µg/mL (≈ 430 µM) | IC50 (KM12): 0.1 µg/mL (≈ 0.43 µM)

CO[C@]12C[C@@H](C)[C@]34O[C@H]3C[C@@]3(C)O[C@@]43CC1=C(C)C(=O)O2 [METHOXYAMERICANOLIDE A]
IC50 (MOLT-4): 0.1 µg/mL (≈ 0.342 µM)

— ChEMBL document CHEMBL1145684, “New Guaiane Metabolites from the Caribbean Gorgonian Coral, Pseudopterogorgia americana” (J Nat Prod, 1997)
